Experimental data taken from article PMC8640094, “Diaportones A–C: Three New Metabolites From Endophytic Fungus Diaporthe foeniculina BZM-15” (Frontiers in Chemistry, 2021).
Several values for one entry are separate records, joined by “and”; a condition that tells them apart may be missing. Equal values may be shown once.

Assays:
normal cell line LX-2 = experiment: MTT cytotoxicity assay, normal cell line LX-2; assay type: cell-based; details: for cell inhibition: listed as Comp.5
Method: (§1) The cytotoxicity of all compounds against three human tumor cell lines, SF-268 (CNS cancer), MCF-7 (breast cancer), and HepG2 (hepatoma cancer), and normal cell line LX-2 was tested using the MTT assay. […] All cells were seeded into 96-well plates at 5 × 10^4 cells/ml and incubated at 37°C under a 5% CO2 atmosphere for 24 h. Then, the tested compounds were added. After 72 h, MTT solution was added into each well, which was further incubated. The cell-free supernatant was removed and formazan crystals were subsequently dissolved in DMSO. Optical density (OD) was recorded at 490 nm on a microplate reader to calculate the IC50 values.

HepG2 (hepatoma cancer) = experiment: MTT cytotoxicity assay, HepG2 cells; assay type: cell-based, human; details: for cell inhibition: listed as Comp.5
Method: (§2) The cytotoxicity of all compounds against three human tumor cell lines, SF-268 (CNS cancer), MCF-7 (breast cancer), and HepG2 (hepatoma cancer), and normal cell line LX-2 was tested using the MTT assay. Adriamycin was used as a positive control. All cells were seeded into 96-well plates at 5 × 10^4 cells/ml and incubated at 37°C under a 5% CO2 atmosphere for 24 h. Then, the tested compounds were added. After 72 h, MTT solution was added into each well, which was further incubated. The cell-free supernatant was removed and formazan crystals were subsequently dissolved in DMSO. Optical density (OD) was recorded at 490 nm on a microplate reader to calculate the IC50 values.

SF-268 (CNS cancer) = experiment: MTT cytotoxicity assay, SF-268 cells; assay type: cell-based, human; details: for cell inhibition: SF268 cells, listed as Comp.5
Method: as §2

MCF-7 (breast cancer) = experiment: MTT cytotoxicity assay, MCF-7 cells; assay type: cell-based, human; details: for cell inhibition: listed as Comp.5
Method: as §1

[1] = LX-2, c 1.00 μM, three replicates
[2] = LX-2, c 2.00 μM, three replicates
[3] = LX-2, c 4.00 μM, three replicates
[4] = LX-2, c 8.00 μM, three replicates
[5] = LX-2, c 16.00 μM, three replicates
[6] = LX-2, c 32.00 μM, three replicates
[7] = LX-2, c 64.00 μM, three replicates
[8] = LX-2, c 128.00 μM, three replicates

SMILES: CC(C)C12CC1C(C)(O)CC2=O (centres unmarked) [compound 5, diaportone C]
- inhibition at 1 µM (normal cell line LX-2; [1]): 11.1%
- cell inhibition (normal cell line LX-2; [1]): 11.45% and 12.45%
- inhibition at 2 µM (normal cell line LX-2; [2]): 13.5%
- cell inhibition (normal cell line LX-2; [2]): 13.52% and 12.56%
- inhibition at 4 µM (normal cell line LX-2; [3]): 23.6%
- cell inhibition (normal cell line LX-2; [3]): 24.13% and 24.41%
- inhibition at 8 µM (normal cell line LX-2; [4]): 30.1%
- cell inhibition (normal cell line LX-2; [4]): 32.44% and 30.6%
- inhibition at 16 µM (normal cell line LX-2; [5]): 31.7%
- cell inhibition (normal cell line LX-2; [5]): 33.08% and 32.3%
- inhibition at 32 µM (normal cell line LX-2; [6]): 46.6%
- cell inhibition (normal cell line LX-2; [6]): 43.56% and 46.07%
- inhibition at 64 µM (normal cell line LX-2; [7]): 70.3%
- cell inhibition (normal cell line LX-2; [7]): 71.68% and 70.2%
- inhibition at 128 µM (normal cell line LX-2; [8]): 89.2%
- cell inhibition (normal cell line LX-2; [8]): 89.22% and 90.45%
- IC50 (normal cell line LX-2; MTT, 72 h, mean ± SD (n = 3)): > 40 µM
- cell inhibition (HepG2 (hepatoma cancer); HepG2, c 1.00 μM, three replicates): 3.46% and 5.11%
- cell inhibition (HepG2 (hepatoma cancer); HepG2, c 2.00 μM, three replicates): 7.29% and 7.31%
- cell inhibition (HepG2 (hepatoma cancer); HepG2, c 4.00 μM, three replicates): 9.34% and 11.19%
- cell inhibition (HepG2 (hepatoma cancer); HepG2, c 8.00 μM, three replicates): 16.9% and 15.77%
- cell inhibition (HepG2 (hepatoma cancer); HepG2, c 16.00 μM, three replicates): 25.3% and 27.11%
- cell inhibition (HepG2 (hepatoma cancer); HepG2, c 32.00 μM, three replicates): 44.75% and 45.2%
- cell inhibition (HepG2 (hepatoma cancer); HepG2, c 64.00 μM, three replicates): 77.47% and 75.51%
- cell inhibition (HepG2 (hepatoma cancer); HepG2, c 128.00 μM, three replicates): 83.13% and 82.98%
- inhibition at 1 µM (HepG2 (hepatoma cancer); Homo sapiens, HepG2, HepG2, c 1.00 μM, three replicates, read-out: cell inhibition): 3.33%
- inhibition at 2 µM (HepG2 (hepatoma cancer); Homo sapiens, HepG2, HepG2, c 2.00 μM, three replicates, read-out: cell inhibition): 7.36%
- inhibition at 4 µM (HepG2 (hepatoma cancer); Homo sapiens, HepG2, HepG2, c 4.00 μM, three replicates, read-out: cell inhibition): 9.89%
- inhibition at 8 µM (HepG2 (hepatoma cancer); Homo sapiens, HepG2, HepG2, c 8.00 μM, three replicates, read-out: cell inhibition): 16.4%
- inhibition at 16 µM (HepG2 (hepatoma cancer); Homo sapiens, HepG2, HepG2, c 16.00 μM, three replicates, read-out: cell inhibition): 27.6%
- inhibition at 32 µM (HepG2 (hepatoma cancer); Homo sapiens, HepG2, HepG2, c 32.00 μM, three replicates, read-out: cell inhibition): 46.2%
- inhibition at 64 µM (HepG2 (hepatoma cancer); Homo sapiens, HepG2, HepG2, c 64.00 μM, three replicates, read-out: cell inhibition): 77.2%
- inhibition at 128 µM (HepG2 (hepatoma cancer); Homo sapiens, HepG2, HepG2, c 128.00 μM, three replicates, read-out: cell inhibition): 81.1%
- IC50 (HepG2 (hepatoma cancer); Homo sapiens, HepG2, MTT, 72 h, mean ± SD (n = 3)): > 40 µM
- inhibition at 1 µM (SF-268 (CNS cancer); Homo sapiens, SF-268, SF268 cells, c 1.00 μM, triplicate values, read-out: cell inhibition): 6.47%
- inhibition at 2 µM (SF-268 (CNS cancer); Homo sapiens, SF-268, SF268 cells, c 2.00 μM, triplicate values, read-out: cell inhibition): 15.7%
- inhibition at 4 µM (SF-268 (CNS cancer); Homo sapiens, SF-268, SF268 cells, c 4.00 μM, triplicate values, read-out: cell inhibition): 22.9%
- inhibition at 8 µM (SF-268 (CNS cancer); Homo sapiens, SF-268, SF268 cells, c 8.00 μM, triplicate values, read-out: cell inhibition): 22.1%
- inhibition at 16 µM (SF-268 (CNS cancer); Homo sapiens, SF-268, SF268 cells, c 16.00 μM, triplicate values, read-out: cell inhibition): 27.1%
- inhibition at 32 µM (SF-268 (CNS cancer); Homo sapiens, SF-268, SF268 cells, c 32.00 μM, triplicate values, read-out: cell inhibition): 31.9%
- inhibition at 64 µM (SF-268 (CNS cancer); Homo sapiens, SF-268, SF268 cells, c 64.00 μM, triplicate values, read-out: cell inhibition): 67.2%
- inhibition at 128 µM (SF-268 (CNS cancer); Homo sapiens, SF-268, SF268 cells, c 128.00 μM, triplicate values, read-out: cell inhibition): 72.8%
- IC50 (SF-268 (CNS cancer); Homo sapiens, SF-268, MTT, 72 h, mean ± SD (n = 3), read-out: IC50 SF268): > 40 µM
- cell inhibition (SF-268 (CNS cancer); c 1.00 μM, triplicate values): 6.8% and 6.81%
- cell inhibition (SF-268 (CNS cancer); c 2.00 μM, triplicate values): 13.52% and 13.37%
- cell inhibition (SF-268 (CNS cancer); c 4.00 μM, triplicate values): 23.4% and 24.41%
- cell inhibition (SF-268 (CNS cancer); c 8.00 μM, triplicate values): 23.23% and 26.17%
- cell inhibition (SF-268 (CNS cancer); c 16.00 μM, triplicate values): 25.97% and 27.9%
- cell inhibition (SF-268 (CNS cancer); c 32.00 μM, triplicate values): 33.15% and 30.82%
- cell inhibition (SF-268 (CNS cancer); c 64.00 μM, triplicate values): 67.13% and 67.17%
- cell inhibition (SF-268 (CNS cancer); c 128.00 μM, triplicate values): 70.54% and 72.29%
- inhibition at 1 µM (MCF-7 (breast cancer); Homo sapiens, MCF7, MCF-7, c 1.00 μM, three replicates, read-out: cell inhibition): 8.13%
- inhibition at 2 µM (MCF-7 (breast cancer); Homo sapiens, MCF7, MCF-7, c 2.00 μM, three replicates, read-out: cell inhibition): 15.1%
- inhibition at 4 µM (MCF-7 (breast cancer); Homo sapiens, MCF7, MCF-7, c 4.00 μM, three replicates, read-out: cell inhibition): 21.1%
- inhibition at 8 µM (MCF-7 (breast cancer); Homo sapiens, MCF7, MCF-7, c 8.00 μM, three replicates, read-out: cell inhibition): 28.2%
- inhibition at 16 µM (MCF-7 (breast cancer); Homo sapiens, MCF7, MCF-7, c 16.00 μM, three replicates, read-out: cell inhibition): 33.4%
- inhibition at 32 µM (MCF-7 (breast cancer); Homo sapiens, MCF7, MCF-7, c 32.00 μM, three replicates, read-out: cell inhibition): 41.7%
- inhibition at 64 µM (MCF-7 (breast cancer); Homo sapiens, MCF7, MCF-7, c 64.00 μM, three replicates, read-out: cell inhibition): 54.1%
- inhibition at 128 µM (MCF-7 (breast cancer); Homo sapiens, MCF7, MCF-7, c 128.00 μM, three replicates, read-out: cell inhibition): 70.1%
- IC50 (MCF-7 (breast cancer); Homo sapiens, MCF7, MTT, 72 h, mean ± SD (n = 3)): > 40 µM
- cell inhibition (MCF-7 (breast cancer); MCF-7, c 1.00 μM, three replicates): 8.16% and 9.09%
- cell inhibition (MCF-7 (breast cancer); MCF-7, c 2.00 μM, three replicates): 16.13% and 15.25%
- cell inhibition (MCF-7 (breast cancer); MCF-7, c 4.00 μM, three replicates): 22.04% and 21.31%
- cell inhibition (MCF-7 (breast cancer); MCF-7, c 8.00 μM, three replicates): 28.45% and 29.1%
- cell inhibition (MCF-7 (breast cancer); MCF-7, c 16.00 μM, three replicates): 33.57% and 33.06%
- cell inhibition (MCF-7 (breast cancer); MCF-7, c 32.00 μM, three replicates): 42.15% and 41.31%
- cell inhibition (MCF-7 (breast cancer); MCF-7, c 64.00 μM, three replicates): 53.35% and 53.16%
- cell inhibition (MCF-7 (breast cancer); MCF-7, c 128.00 μM, three replicates): 71.36% and 73.18%
